# Measurements: patent US20100021940A1, “Method for Determining the Activity of a Protease in a Sample” (ASTRAZENECA AB, priority 2006, published 2010)
# “And” between values parts separate entries of the source, which are not always exact repeats. Identical values can stand only once.
# What was measured:
# MMP2 = molecular target: T1, MMP2 (Homo sapiens, UniProt P08253); experiment: Activity of purified MMP on substrate (reporter release); assay type: biochemical; conditions: 30 μM substrate; MMP Conc. 0.71 nM; Chemicon #CC071
# T1 sequence (P08253 110-660): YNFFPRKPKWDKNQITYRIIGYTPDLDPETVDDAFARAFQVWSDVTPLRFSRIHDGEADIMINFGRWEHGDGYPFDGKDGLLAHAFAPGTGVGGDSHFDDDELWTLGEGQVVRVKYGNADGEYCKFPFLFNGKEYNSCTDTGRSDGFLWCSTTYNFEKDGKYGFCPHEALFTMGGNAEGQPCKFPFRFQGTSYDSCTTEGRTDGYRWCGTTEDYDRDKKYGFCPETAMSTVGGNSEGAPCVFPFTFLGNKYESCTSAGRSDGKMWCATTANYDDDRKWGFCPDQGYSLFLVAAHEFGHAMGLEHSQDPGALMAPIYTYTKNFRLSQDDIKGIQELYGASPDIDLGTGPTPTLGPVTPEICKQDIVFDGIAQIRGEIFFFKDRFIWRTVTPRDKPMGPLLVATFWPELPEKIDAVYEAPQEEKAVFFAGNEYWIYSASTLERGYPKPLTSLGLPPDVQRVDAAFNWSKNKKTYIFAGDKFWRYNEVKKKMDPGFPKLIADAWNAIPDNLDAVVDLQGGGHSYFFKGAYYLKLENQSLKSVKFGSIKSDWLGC
# Source text: In order to confirm the specificity of the substrates for various MMPs, standard enzymatic assays were adapted to monitor the release of reporter. The reporter was either analysed by a LC-MS method as described in Example 3a, or by a LC-UV method as described in Example 4.
# A protocol for testing against other matrix metalloproteinases, including MMP9, using expressed and purified pro MMP is described, for instance, by C. Graham Knight et al., (1992) FEBS Lett., 296(3), 263-266.
# MMP9 = MMP9 activity in whole blood via 4-nitroaniline in plasma after zymosan stimulation (LC-MS); assay type: biochemical, human; conditions: for 4-nitroaniline concentration, Mean: group mean; for 4-nitroaniline concentration: individual subjects, substrate 10 μM in plasma, 37° C., 60 min
# Experimental: Samples of heparinised whole blood (1 mL) were stimulated with Zymosan (0, 50, 300, 600, 900 and 1200 μg/mL), vortexed or and incubated at 37° C. for 15 minutes. Plasma was collected after centrifugation, mixed with the substrate (10 μM) and incubated at 37° C. for 60 minutes. Methanol (300 μL), with (^13C)6-4-nitroaniline (1 μM) as internal standard, was added to a 100 μL aliquot of the above mixture and centrifuged to remove precipitated proteins. The supernatant (100 μL) was diluted with water (100 μL) and the extracts was injected directly onto a HPLC column.
# Thaw, as required, pooled control human plasma, quality control and test samples. Add methyl 1-acetyl-L-prolyl-L-leucylglycyl-α-R-(4-nitrophenylamino)-glycyl-L-leucyl-β-alaninate (2 μL, solution D) to test plasma sample (200 μL) in 2 mL screw cap microtubes and mix on a vortex mixer.
# Incubate tubes for 60 minutes at 37° C. in a shaking water bath. Prepare the calibration samples in plasma as detailed in Table 1 during the 60 minute incubation of test samples in step 3. Mix the samples on a vortex mixer.
# Manually dispense aliquots (100 μL) of each plasma sample into separate wells of a 96 deep-well 2 mL plate using an appropriate pipette. (Note: start pipetting calibration, quality control and blank samples approximately 10 minutes before the test samples have finished their incubation in step 3). Dispense internal standard in methanol (300 μL) into each well using the Tecan. Cover the plate with polystyrene cover. Centrifuge at 3000 rpm for 5 minutes at room temperature.
# Transfer an aliquot (100 μL) of the sample supernatant into separate wells of a 96 deep-well 2 mL plate using the Tecan. Mix water (100 μL) with each sample in the wells of a 96 deep-well polypropylene plate using the Tecan. Cover plate with pre-spilt 96 well seal.
# Analyse 10 μL aliquots by LC/MS.
# Whole blood samples were stimulated with varying concentrations of zymosan (0, 50, 300, 600, 900 and 1200 μg/mL). Plasma sample obtained from the stimulated whole blood samples were mixed with the substrate methyl 1-acetyl-L-prolyl-L-leucylglycyl-α-R-(4-nitrophenylamino)-glycyl-L-leucyl-β-alaninate at a plasma concentration of 10 μM and the samples were then incubated at 37° C. for 60 minutes. Aliquots (100 μL) of the human plasma were mixed with methanol (300 μL) containing [^13C]6-4-nitroaniline as an internal standard to precipitate the proteins and the sample was centrifuged and supernatants (100 μL) were mixed with water (100 μL). The extracts 10 μL were injected directly onto a Phenomenex Luna phenyl-hexyl column (50×2.0 mm, 5 μm) and the compounds eluted with a gradient mobile phase consisting of 0.01% ammonia/methanol. 4-nitroaniline was resolved from endogenous plasma constituents and the HPLC effluent was directed into the mass spectrometer via a heated nebuliser interface in negative mode. 4-nitroaniline and [^13C]6-4-nitroaniline were detected using single ion monitoring of the [M-H]^− ions at the mass to charge ratio of m/z 137 and 143 respectively. The method is described above.
# The method is validated over the range 0.0500 to 10.0 μM for 4-nitroaniline based on the analysis of a 100 μL plasma sample. Quality control samples at concentrations of 0.100, 2.00 and 8.00 μM 4-nitroaniline were included to determine the acceptability of each analysis batch. The limit of quantification (LOQ) of the method is 0.0500 μM 4-nitroaniline for a 100 μL aliquot of plasma.
# [1] = healthy volunteers, visit 3, zymosan 0 μg
# [2] = healthy volunteers, visit 3, zymosan 50 μg
# [3] = healthy volunteers, visit 3, zymosan 300 μg
# [4] = healthy volunteers, visit 3, zymosan 600 μg
# [5] = healthy volunteers, visit 3, zymosan 900 μg
# [6] = healthy volunteers, visit 3, zymosan 1200 μg
# [7] = healthy volunteers, visit 4, zymosan 0 μg
# [8] = healthy volunteers, visit 4, zymosan 50 μg
# [9] = healthy volunteers, visit 4, zymosan 300 μg
# [10] = healthy volunteers, visit 4, zymosan 600 μg
# [11] = healthy volunteers, visit 4, zymosan 900 μg
# [12] = healthy volunteers, visit 4, zymosan 1200 μg
structure (smiles),measurement,setting,value
"COC(=O)CCNC(=O)[C@H](CC(C)C)NC(=O)[C@@H](NC(=O)CNC(=O)[C@H](CC(C)C)NC(=O)[C@@H]1CCCN1C(C)=O)Nc1ccc([N+](=O)[O-])cc1 [Example 1.1, Methyl 1-acetyl-L-prolyl-L-leucylglycyl-α-R-(4-nitrophenylamino)-glycyl-L-leucyl-β-alaninate]",Activity,MMP2,2.3 units/s
same,"4-nitroaniline concentration, Mean","MMP9; COPD patients, visit 3, zymosan 0 μg",0.128 µM
same,"4-nitroaniline concentration, Mean","MMP9; COPD patients, visit 3, zymosan 50 μg",1.58 µM
same,"4-nitroaniline concentration, Mean","MMP9; COPD patients, visit 3, zymosan 300 μg",3.56 µM
same,"4-nitroaniline concentration, Mean","MMP9; COPD patients, visit 3, zymosan 600 μg",4.33 µM
same,"4-nitroaniline concentration, Mean","MMP9; COPD patients, visit 3, zymosan 900 μg",4.77 µM
same,"4-nitroaniline concentration, Mean","MMP9; COPD patients, visit 3, zymosan 1200 μg",4.68 µM
same,"4-nitroaniline concentration, Mean","MMP9; COPD patients, visit 4, zymosan 0 μg",0.141 µM
same,"4-nitroaniline concentration, Mean","MMP9; COPD patients, visit 4, zymosan 50 μg",1.51 µM
same,"4-nitroaniline concentration, Mean","MMP9; COPD patients, visit 4, zymosan 300 μg",3.31 µM
same,"4-nitroaniline concentration, Mean","MMP9; COPD patients, visit 4, zymosan 600 μg",4.03 µM
same,"4-nitroaniline concentration, Mean","MMP9; COPD patients, visit 4, zymosan 900 μg",4.41 µM
same,"4-nitroaniline concentration, Mean","MMP9; COPD patients, visit 4, zymosan 1200 μg",4.54 µM
same,"4-nitroaniline concentration, Mean",MMP9; [1],0.121 µM
same,4-nitroaniline concentration,MMP9; [1],0.145 μM (2×) and 0.132 μM and 0.126 μM and 0.0917 μM and 0.124 μM and 0.104 μM and 0.0963 μM and 0.118 μM and 0.123 μM
same,"4-nitroaniline concentration, Mean",MMP9; [2],1.22 µM
same,4-nitroaniline concentration,MMP9; [2],1.13 μM (2×) and 1.82 μM and 2.10 μM and 1.52 μM and 0.988 μM and 0.836 μM and 0.878 μM and 0.646 μM and 1.16 μM
same,"4-nitroaniline concentration, Mean",MMP9; [3],2.82 µM
same,4-nitroaniline concentration,MMP9; [3],2.48 µM and 3.68 µM and 2.65 µM and 4.32 µM and 3.63 µM and 2.82 µM and 2.31 µM and 2.42 µM and 1.56 µM and 2.28 µM
same,"4-nitroaniline concentration, Mean",MMP9; [4],3.36 µM
same,4-nitroaniline concentration,MMP9; [4],3.00 µM and 4.26 µM and 2.98 µM and 4.39 µM and 4.23 µM and 3.90 µM and 3.08 µM and 2.99 µM and 1.84 µM and 2.95 µM
same,"4-nitroaniline concentration, Mean",MMP9; [5],3.52 µM
same,4-nitroaniline concentration,MMP9; [5],3.05 µM and 4.50 µM and 3.14 µM and 4.38 µM and 4.24 µM and 3.98 µM and 3.45 µM and 3.35 µM and 2.07 µM and 2.99 µM
same,"4-nitroaniline concentration, Mean",MMP9; [6],3.59 µM
same,4-nitroaniline concentration,MMP9; [6],3.07 µM and 4.53 µM and 2.99 µM and 4.28 µM and 4.45 µM and 4.41 µM and 3.53 µM and 3.50 µM and 2.14 µM and 3.02 µM
same,"4-nitroaniline concentration, Mean",MMP9; [7],0.131 µM
same,4-nitroaniline concentration,MMP9; [7],0.154 µM and 0.192 µM and 0.106 µM and 0.0977 µM and 0.130 µM and 0.199 µM and 0.0803 µM
same,"4-nitroaniline concentration, Mean",MMP9; [8],0.986 µM
same,4-nitroaniline concentration,MMP9; [8],1.49 µM and 2.11 µM and 0.808 µM and 0.616 µM and 0.732 µM and 0.795 µM and 0.758 µM
same,"4-nitroaniline concentration, Mean",MMP9; [9],2.39 µM
same,4-nitroaniline concentration,MMP9; [9],2.81 µM and 4.29 µM and 1.92 µM and 1.68 µM and 1.98 µM and 2.29 µM and 2.22 µM
same,"4-nitroaniline concentration, Mean",MMP9; [10],2.84 µM
same,4-nitroaniline concentration,MMP9; [10],3.17 µM and 4.36 µM and 2.39 µM and 2.12 µM and 2.41 µM and 3.36 µM
same,"4-nitroaniline concentration, Mean",MMP9; [11],3.26 µM
same,4-nitroaniline concentration,MMP9; [11],3.27 μM and 5.53 μM and 2.69 μM and 2.46 μM and 3.03 μM and 3.48 μM (2×)
same,"4-nitroaniline concentration, Mean",MMP9; [12],3.39 µM
same,4-nitroaniline concentration,MMP9; [12],3.32 µM and 5.28 µM and 2.84 µM and 2.85 µM and 3.15 µM and 4.00 µM
same,"4-nitroaniline concentration, Mean","MMP9; smokers, visit 3, zymosan 0 μg",0.149 µM
same,"4-nitroaniline concentration, Mean","MMP9; smokers, visit 3, zymosan 50 μg",1.45 µM
same,"4-nitroaniline concentration, Mean","MMP9; smokers, visit 3, zymosan 300 μg",3.35 µM
same,"4-nitroaniline concentration, Mean","MMP9; smokers, visit 3, zymosan 600 μg",4.10 µM
same,"4-nitroaniline concentration, Mean","MMP9; smokers, visit 3, zymosan 900 μg",4.45 µM
same,"4-nitroaniline concentration, Mean","MMP9; smokers, visit 3, zymosan 1200 μg",4.47 µM
same,"4-nitroaniline concentration, Mean","MMP9; smokers, visit 4, zymosan 0 μg",0.142 µM
same,"4-nitroaniline concentration, Mean","MMP9; smokers, visit 4, zymosan 50 μg",1.66 µM
same,"4-nitroaniline concentration, Mean","MMP9; smokers, visit 4, zymosan 300 μg",3.32 µM
same,"4-nitroaniline concentration, Mean","MMP9; smokers, visit 4, zymosan 600 μg",3.76 µM
same,"4-nitroaniline concentration, Mean","MMP9; smokers, visit 4, zymosan 900 μg",4.19 µM
same,"4-nitroaniline concentration, Mean","MMP9; smokers, visit 4, zymosan 1200 μg",4.41 µM
